{"source": "patent US20120046332A1", "about": "“COMPOSITIONS AND METHODS FOR TREATING CORNEAL HAZE” (ALLERGAN, INC., priority 2010, published 2012)", "key": {"[1]": {"system": "adult skin fibroblasts", "assay": "myofibroblast transformation assay, Western blot of α-SMA expression", "format": "cell-based, human", "conditions": "co-treatment with TGF-β1 2 ng/ml for 96 hrs in serum-free medium; EP2 agonist 100 nM, EP4 agonist 10 nM", "procedure": "(§1) To perform the myofibroblast transformation assay, adult skin fibroblasts were cultured until 70% confluent, washed with phosphate buffered saline (PBS), and then starved in serum-free medium for 48 hours. Post starvation, cells were treated with TGF-β1 at 2 ng/ml alone or in combination with Compound V—100 nM, Compound II—10 nM or vehicle for 96 hrs in a fresh serum-free medium (TGF-beta1 from Sigma Aldrich, USA). Cell lysates were collected at the end of the study and Western blot was performed to monitor the expression of alpha-smooth muscle actin (α-SMA), the marker of myofibroblasts.\nCells were washed with cold PBS three times and lysed with a lysis buffer containing phosphatase inhibitors and proteinase inhibitors (Invitrogen, San Diego, Calif.). Protein level in lysates was quantified (bicinchoninic acid (BCA) protein assay kit, Pierce, USA). For Western blot, an equal amount of protein was applied at each lane, and subjected to electrophoresis. […] Fluorescence signals associated with target proteins were detected upon exposure to fluorescence-sensitive films (Cell signaling Technology, Inc., Berverly, Mass.). […] Beta-actin, a house-keeping gene, was also quantified on the same membrane as an internal control for loading amount. […]"}, "[2]": {"system": "adult skin fibroblasts", "assay": "myofibroblast transformation, anti-α-SMA immunocytochemistry / morphology", "format": "cell-based, human", "conditions": "co-treatment with TGF-β1 in serum-free medium; EP2 agonist 100 nM, EP4 agonist 10 nM", "text": "FIGS. 1A-D show immunohistochemical staining of human adult skin fibroblasts treated with vehicle (FIG. 1A), transforming growth factor beta-1 (TGF-β1; FIG. 1B), TGF-β1+ prostaglandin receptor subtype-4 (EP4) agonist (FIG. 1C), or TGF-β1+ prostaglandin receptor subtype 2 (EP2) agonist (FIG. 1D). TGF-β1 induced transformation of myofibroblasts, which stained green with anti-alpha-smooth muscle actin (α-SMA) immunocytochemistry.\nas §1\nas §1, with “PBS,” for “phosphate buffered saline (PBS),”, “hrs.” for “hours.”, “TGF-beta1” for “TGF-β1”, “III—100” for “V—100”, “I—10” for “II—10”, “(TGF-β1” for “(TGF-beta1”\nNormal skin fibroblasts are slim and spindle-shaped without detectable α-SMA (marker of myofibroblasts), 6 days post culturing in a serum-free medium (FIGS. 1-2)."}}}
{"smiles": "O=C(O)CCCCCCN1C(=O)CC[C@@H]1/C=C/C(O)Cc1ccccc1", "note": "(stereo partly drawn) [Compound III]", "values": [{"measurement": "reduction of TGF-β1-induced α-SMA expression (Western blot)", "setting": "[1]", "result": "approximately 50%"}, {"measurement": "cell size (TGF-β1-induced increase)", "setting": "[2]", "result": "but not cell size"}, {"measurement": "α-SMA positive stress fibers", "setting": "[2]", "result": "significantly reduced"}]}
{"smiles": "CC1(C)C(=O)[C@H](C/C=C\\CCCC(=O)O)[C@@H](/C=C/[C@H](O)CCc2sc3ccccc3c2Cl)[C@@H]1O", "note": "[Compound I]", "values": [{"measurement": "reduction of TGF-β1-induced α-SMA expression (Western blot)", "setting": "[1]", "result": "~75", "unit": "%"}, {"measurement": "cell size (TGF-β1-induced increase)", "setting": "[2]", "result": "but not cell size"}, {"measurement": "α-SMA positive stress fibers", "setting": "[2]", "result": "significantly reduced"}]}
